pKi: −log10 of the molar value.
Experiments:
Assay type in all cases: biochemical
c-Met = c-Met (Homo sapiens, UniProt P08581); experiment: Ki determination for the inhibition of c-Met, coupled enzyme system; settings: 200 μM ATP, 10 μM polyGluTyr, 80 nM c-Met, 30° C.
Procedure: Compounds were screened for their ability to inhibit c-Met kinase activity using a standard coupled enzyme system (Fox et al., Protein Sci. 1998, 7, 2249). Reactions were carried out in a solution containing 100 mM HEPES (pH 7.5), 10 mM MgCl2, 25 mM NaCl, 300 μM NADH, 1 mM DTT, and 1.5% DMSO. Final substrate concentrations in the assay were 200 μM ATP (Sigma Chemicals, St Louis, Mo.) and 10 μM polyGluTyr (Sigma Chemical Company, St. Louis). Reactions were carried out at 30° C. and 80 nM c-Met. Final concentrations of the components of the coupled enzyme system were 2.5 mM phosphoenolpyruvate, 300 μM NADH, 30 μg/ml pyruvate kinase and 10 μg/ml lactate dehydrogenase.
An assay stock buffer solution was prepared containing all of the reagents listed above with the exception of ATP and a test compound of the present invention. The assay stock buffer solution (175 μl) was incubated in a 96 well plate with 5 μl of the test compound of the present invention at final concentrations spanning 0.006 μM to 12.5 μM at 30° C. for 10 minutes. Typically, a 12-point titration was conducted by preparing serial dilutions (from 10 mM compound stocks) with DMSO of the test compounds of the present invention in daughter plates. The reaction was initiated by the addition of 20 μl of ATP (final concentration 200 μM). Rates of reaction were obtained using a Molecular Devices Spectramax plate reader (Sunnyvale, Calif.) over 10 minutes at 30° C. The Ki values were determined from the rate data as a function of inhibitor concentration.

GSK-3β, (AA 1-420) = GSK-3β, (AA 1-420) (Homo sapiens, UniProt P49841); experiment: GSK-3 inhibition assay, coupled enzyme system; settings: 20 μM ATP, 300 μM peptide, 20 nM GSK-3b, 30° C.; read-out: Ki values (GSK3)
Sequence of GSK-3β, (AA 1-420) (P49841 whole entry, the tested form may be a part): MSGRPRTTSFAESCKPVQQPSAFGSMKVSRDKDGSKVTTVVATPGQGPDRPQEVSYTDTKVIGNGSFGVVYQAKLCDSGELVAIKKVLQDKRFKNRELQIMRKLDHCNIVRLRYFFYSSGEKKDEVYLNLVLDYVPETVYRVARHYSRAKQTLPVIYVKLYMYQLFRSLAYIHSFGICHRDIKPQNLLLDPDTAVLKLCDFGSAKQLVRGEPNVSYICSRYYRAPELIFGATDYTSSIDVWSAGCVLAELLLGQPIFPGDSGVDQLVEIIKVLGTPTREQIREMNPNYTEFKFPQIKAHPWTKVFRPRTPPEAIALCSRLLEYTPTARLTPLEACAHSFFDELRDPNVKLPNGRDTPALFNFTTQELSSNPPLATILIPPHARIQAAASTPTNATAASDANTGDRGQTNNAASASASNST
Procedure: Compounds of the present invention were screened for their ability to inhibit GSK-3β, (AA 1-420) activity using a standard coupled enzyme system (Fox et al., Protein Sci. 1998, 7, 2249). Reactions were carried out in a solution containing 100 mM HEPES (pH 7.5), 10 mM MgCl2, 25 mM NaCl, 300 μM NADH, 1 mM DTT and 1.5% DMSO. Final substrate concentrations in the assay were 20 μM ATP (Sigma Chemicals, St Louis, Mo.) and 300 μM peptide (American Peptide, Sunnyvale, Calif.). Reactions were carried out at 30° C. and 20 nM GSK-3b. Final concentrations of the components of the coupled enzyme system were 2.5 mM phosphoenolpyruvate, 300 μM NADH, 30 μg/ml pyruvate kinase and 10 μg/ml lactate dehydrogenase.
An assay stock buffer solution was prepared containing all of the reagents listed above with the exception of ATP and the test compound of the present invention. The assay stock buffer solution (175 μl) was incubated in a 96 well plate with 5 μl of the test compound of the present invention at final concentrations spanning 0.002 μM to 30 μM at 30° C. for 10 min. Typically, a 12 point titration was conducted by preparing serial dilutions (from 10 mM compound stocks) with DMSO of the test compounds of the present invention in daughter plates. The reaction was initiated by the addition of 20 μl of ATP (final concentration 20 μM). Rates of reaction were obtained using a Molecular Devices Spectramax plate reader (Sunnyvale, Calif.) over 10 min at 30° C. The Ki values were determined from the rate data as a function of inhibitor concentration.

KDR = KDR (Homo sapiens, UniProt P35968); experiment: KDR enzyme assay, coupled enzyme assay; settings: 300 μM ATP, 10 μM poly E4Y, 30 nM KDR, 37° C.
Sequence of KDR (P35968 20-1356): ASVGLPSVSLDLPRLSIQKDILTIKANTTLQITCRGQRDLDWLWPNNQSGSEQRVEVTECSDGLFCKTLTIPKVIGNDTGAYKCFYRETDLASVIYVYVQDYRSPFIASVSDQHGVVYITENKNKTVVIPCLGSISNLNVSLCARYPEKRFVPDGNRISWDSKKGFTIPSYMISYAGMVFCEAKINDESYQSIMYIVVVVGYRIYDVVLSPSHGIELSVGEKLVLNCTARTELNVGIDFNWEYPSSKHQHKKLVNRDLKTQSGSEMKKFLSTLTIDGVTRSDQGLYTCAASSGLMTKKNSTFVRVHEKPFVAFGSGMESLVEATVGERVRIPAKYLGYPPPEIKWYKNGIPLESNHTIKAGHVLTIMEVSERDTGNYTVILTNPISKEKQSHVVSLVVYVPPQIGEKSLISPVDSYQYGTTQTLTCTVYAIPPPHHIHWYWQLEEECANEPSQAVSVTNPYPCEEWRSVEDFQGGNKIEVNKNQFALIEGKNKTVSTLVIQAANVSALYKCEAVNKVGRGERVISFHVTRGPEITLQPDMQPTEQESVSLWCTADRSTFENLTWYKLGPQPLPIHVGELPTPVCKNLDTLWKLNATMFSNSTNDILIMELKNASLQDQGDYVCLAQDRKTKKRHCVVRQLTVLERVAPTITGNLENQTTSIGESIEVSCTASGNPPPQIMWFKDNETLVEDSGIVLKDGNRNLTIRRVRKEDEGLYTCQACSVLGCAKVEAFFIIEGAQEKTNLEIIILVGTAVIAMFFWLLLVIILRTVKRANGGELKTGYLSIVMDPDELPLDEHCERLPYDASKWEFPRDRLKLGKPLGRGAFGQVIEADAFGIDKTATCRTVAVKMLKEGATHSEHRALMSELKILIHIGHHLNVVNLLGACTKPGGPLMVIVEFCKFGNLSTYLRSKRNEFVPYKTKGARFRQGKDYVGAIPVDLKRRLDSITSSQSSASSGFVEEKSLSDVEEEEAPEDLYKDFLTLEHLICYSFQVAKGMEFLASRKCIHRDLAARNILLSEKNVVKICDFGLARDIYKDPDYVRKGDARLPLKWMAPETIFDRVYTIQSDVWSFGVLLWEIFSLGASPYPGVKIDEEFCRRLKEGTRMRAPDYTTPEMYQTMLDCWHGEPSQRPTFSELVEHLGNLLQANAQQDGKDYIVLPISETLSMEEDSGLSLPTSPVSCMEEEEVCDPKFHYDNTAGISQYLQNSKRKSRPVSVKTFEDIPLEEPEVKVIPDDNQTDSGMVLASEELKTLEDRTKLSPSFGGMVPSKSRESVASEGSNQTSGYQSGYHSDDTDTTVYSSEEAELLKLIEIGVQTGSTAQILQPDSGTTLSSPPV
Procedure: Compounds were screened for their ability to inhibit KDR using a standard coupled enzyme assay (Fox et al., Protein Sci., (1998) 7, 2249). Assays were carried out in a mixture of 200 mM HEPES 7.5, 10 mM MgCl2, 25 mM NaCl, 1 mM DTT and 1.5% DMSO. Final substrate concentrations in the assay were 300 μM ATP (Sigma Chemicals) and 10 μM poly E4Y (Sigma). Assays were carried out at 37° C. and 30 nM KDR. Final concentrations of the components of the coupled enzyme system were 2.5 mM phosphoenolpyruvate, 200 μM NADH, 30 μg/ML pyruvate kinase and 10 μg/ml lactate dehydrogenase.
An assay stock buffer solution was prepared containing all of the reagents listed above, with the exception of ATP and the test compound of interest. 177 μl of the stock solution was placed in a 96 well plate followed by addition of 3 μl of 2 mM DMSO stock containing the test compound (final compound concentration 30 μM). The plate was preincubated for about 10 minutes at 37° C. and the reaction initiated by addition of 20 μl of ATP (final concentration 300 μM). Rates of reaction were obtained using a Molecular Devices plate reader (Sunnyvale, Calif.) over a 5 minute read time at 37° C.

JAK3 = target: T1, JAK3 (Homo sapiens, UniProt P52333); experiment: JAK3 inhibition assay (ELISA, Poly (Glu, Ala, Tyr) coated plates); settings: 2 mM ATP, 60 minutes at 30° C.
T1 sequence (P52333 1-1124): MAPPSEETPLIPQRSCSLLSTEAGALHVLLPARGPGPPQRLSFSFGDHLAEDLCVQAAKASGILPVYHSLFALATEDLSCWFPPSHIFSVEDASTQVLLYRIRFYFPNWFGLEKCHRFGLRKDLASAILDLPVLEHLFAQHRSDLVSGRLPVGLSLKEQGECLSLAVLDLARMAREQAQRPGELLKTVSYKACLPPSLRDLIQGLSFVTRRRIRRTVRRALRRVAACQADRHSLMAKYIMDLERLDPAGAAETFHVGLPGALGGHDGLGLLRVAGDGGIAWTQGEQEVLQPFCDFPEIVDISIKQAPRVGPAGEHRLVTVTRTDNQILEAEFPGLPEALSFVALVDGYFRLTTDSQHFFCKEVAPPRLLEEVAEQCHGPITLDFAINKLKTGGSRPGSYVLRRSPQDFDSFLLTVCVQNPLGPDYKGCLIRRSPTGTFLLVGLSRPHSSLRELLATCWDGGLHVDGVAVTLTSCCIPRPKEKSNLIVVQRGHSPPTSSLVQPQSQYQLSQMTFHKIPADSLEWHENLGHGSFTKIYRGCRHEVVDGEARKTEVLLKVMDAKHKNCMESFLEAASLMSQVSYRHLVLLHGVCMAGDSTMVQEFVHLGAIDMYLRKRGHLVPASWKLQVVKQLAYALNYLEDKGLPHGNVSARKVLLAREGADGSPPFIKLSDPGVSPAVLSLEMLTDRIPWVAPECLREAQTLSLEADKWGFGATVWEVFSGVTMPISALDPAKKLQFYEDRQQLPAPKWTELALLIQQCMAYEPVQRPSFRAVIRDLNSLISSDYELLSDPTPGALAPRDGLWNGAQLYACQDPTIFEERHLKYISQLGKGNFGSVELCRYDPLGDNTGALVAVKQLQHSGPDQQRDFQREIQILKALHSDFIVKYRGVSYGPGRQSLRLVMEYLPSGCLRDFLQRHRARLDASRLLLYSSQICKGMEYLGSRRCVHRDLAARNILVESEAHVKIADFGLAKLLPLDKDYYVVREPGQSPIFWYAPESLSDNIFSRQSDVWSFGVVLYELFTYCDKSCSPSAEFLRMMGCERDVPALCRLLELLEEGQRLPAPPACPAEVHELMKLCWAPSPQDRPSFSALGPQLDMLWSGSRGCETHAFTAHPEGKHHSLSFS
Procedure: Compound inhibition of JAK3 was assayed by the method described by G. R. Brown, et al., Bioorg. Med. Chem. Lett. 2000, vol. 10, pp 575-579 in the following manner. Into Maxisorb plates, previously coated at 4° C. with Poly (Glu, Ala, Tyr) 6:3:1 then washed with phosphate buffered saline 0.05% and Tween (PBST), was added 2 mM ATP, 5 mM MgCl2, and a solution of compound in DMSO. The reaction was started with JAK enzyme and the plates incubated for 60 minutes at 30° C. The plates were then washed with PBST, […] HRP-Conjugated 4G10 antibody was added, and the plate incubated for 90 minutes at 30° C. The plate was again washed with PBST, […] TMB solution is added, and the plates were incubated for another 30 minutes at 30° C. Sulfuric acid ([…] of 1M) was added to stop the reaction and the plate is read at 450 nm to obtain the optical densities for analysis to determine IC50 values.

Sequence of c-Met (P08581 25-1390): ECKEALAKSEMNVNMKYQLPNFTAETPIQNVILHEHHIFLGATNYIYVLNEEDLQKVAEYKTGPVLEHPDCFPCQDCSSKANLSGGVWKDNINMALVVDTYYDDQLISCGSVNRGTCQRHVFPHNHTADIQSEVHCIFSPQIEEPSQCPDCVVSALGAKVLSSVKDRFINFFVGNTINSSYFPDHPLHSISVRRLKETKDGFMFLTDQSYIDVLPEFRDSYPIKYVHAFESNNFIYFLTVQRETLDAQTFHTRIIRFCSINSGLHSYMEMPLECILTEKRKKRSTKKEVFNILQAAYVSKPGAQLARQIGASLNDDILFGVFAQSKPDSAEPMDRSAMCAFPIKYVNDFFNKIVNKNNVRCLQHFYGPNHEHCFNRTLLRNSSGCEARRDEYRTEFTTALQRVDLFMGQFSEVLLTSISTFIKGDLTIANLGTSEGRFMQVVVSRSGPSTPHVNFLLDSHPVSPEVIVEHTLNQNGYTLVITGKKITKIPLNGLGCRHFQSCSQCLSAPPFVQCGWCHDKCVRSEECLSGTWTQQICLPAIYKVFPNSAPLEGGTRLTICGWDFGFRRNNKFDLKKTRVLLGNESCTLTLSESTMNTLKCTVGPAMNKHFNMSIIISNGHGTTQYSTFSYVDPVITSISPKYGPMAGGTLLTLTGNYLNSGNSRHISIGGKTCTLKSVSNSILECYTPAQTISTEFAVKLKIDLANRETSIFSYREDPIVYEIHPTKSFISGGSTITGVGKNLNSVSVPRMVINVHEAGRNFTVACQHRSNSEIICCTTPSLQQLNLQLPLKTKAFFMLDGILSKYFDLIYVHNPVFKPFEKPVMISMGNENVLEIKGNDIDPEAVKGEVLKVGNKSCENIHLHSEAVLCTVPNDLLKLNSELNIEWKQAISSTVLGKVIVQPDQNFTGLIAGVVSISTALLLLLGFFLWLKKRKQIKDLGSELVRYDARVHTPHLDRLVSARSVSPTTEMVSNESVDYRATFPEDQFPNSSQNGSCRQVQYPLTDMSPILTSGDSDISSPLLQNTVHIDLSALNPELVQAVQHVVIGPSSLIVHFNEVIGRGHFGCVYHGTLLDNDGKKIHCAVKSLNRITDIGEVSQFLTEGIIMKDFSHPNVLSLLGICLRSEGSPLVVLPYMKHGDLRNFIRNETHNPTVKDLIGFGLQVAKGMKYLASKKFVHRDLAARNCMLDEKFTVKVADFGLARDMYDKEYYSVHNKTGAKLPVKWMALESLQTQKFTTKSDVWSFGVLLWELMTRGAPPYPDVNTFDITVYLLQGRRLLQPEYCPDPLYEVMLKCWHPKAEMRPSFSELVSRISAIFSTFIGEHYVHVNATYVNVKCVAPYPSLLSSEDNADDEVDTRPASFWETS

SMILES	pKi (c-Met)	pKi (GSK-3β, (AA 1-420))	pKi (KDR)	pKi (JAK3)
Fc1cccc(-c2cnoc2-c2n[nH]c3ncc(Br)cc23)c1F [Compound 148]	6.00 to 6.70	4.90 to 6.00	6.00 to 6.70	–
c1ccc(-c2cnoc2-c2c[nH]c3ncccc23)nc1 [Compound 50, 3-(4-Pyridin-2-yl-isoxazol-5-yl)-1H-pyrrolo[2,3-b]pyridine]	–	–	–	4.90 to 6.00
[O-][n+]1cccc2c(-c3oncc3-c3cccc(F)c3F)c[nH]c21 [Compound 151]	4.90 to 6.00	4.90 to 6.00	–	–
c1cncc(-c2cnoc2-c2c[nH]c3ncccc23)c1 [Compound 52, 3-(4-Pyridin-3-yl-isoxazol-5-yl)-1H-pyrrolo[2,3-b]pyridine]	4.90 to 6.00	4.90 to 6.00	–	4.90 to 6.00
Fc1cccc(-c2cnoc2-c2c[nH]c3c(F)cccc23)c1F [Compound 33, 3-[4-(2,3-Difluoro-phenyl)-isoxazol-5-yl]-7-fluoro-1H-indole]	–	4.90 to 6.00	–	–
CCNc1ccc2c(-c3oncc3-c3cccc(F)c3F)n[nH]c2n1 [Compound 30, {3-[4-(2,3-Difluoro-phenyl)-isoxazol-5-yl]-1H-pyrazolo[3,4-b]pyridin-6-yl}-ethyl-amine]	4.90 to 6.00	–	–	–
O=c1c2[nH]cc(-c3oncc3-c3cccc(F)c3F)c2ccn1Cc1ccccc1 [Compound 147, 6-Benzyl-3-[4-(2,3-difluoro-phenyl)-isoxazol-5-yl]-1,6-dihydro-pyrrolo[2,3-c]pyridin-7-one]	4.90 to 6.00	–	–	–
COc1cccc(-c2cnoc2-c2c[nH]c3ncccc23)c1OC [Compound 51, 3-[4-(2,3-Dimethoxy-phenyl)-isoxazol-5-yl]-1H-pyrrolo[2,3-b]pyridine]	4.90 to 6.00	–	4.90 to 6.00	6.00 to 6.70
Fc1cccc(-c2cnoc2-c2c[nH]c3nc(N4CCCC4)ccc23)c1F [Compound 100, 3-[4-(2,3-Difluoro-phenyl)-isoxazol-5-yl]-6-pyrrolidin-1-yl-1H-pyrrolo[2,3-b]pyridine]	4.90 to 6.00	–	–	–
Fc1cccc(-c2cnoc2-c2c[nH]c3nc(Cl)ccc23)c1F [Compound 101, 6-Chloro-3-[4-(2,3-difluoro-phenyl)-isoxazol-5-yl]-1H-pyrrolo[2,3-b]pyridine]	4.90 to 6.00	–	–	–

The remaining lines, values ahead:

pKi (c-Met)	pKi (GSK-3β, (AA 1-420))	pKi (KDR)	pKi (JAK3)	SMILES
4.90 to 6.00	–	–	–	CN(C)c1ccc2c(-c3oncc3-c3cccc(F)c3F)n[nH]c2n1 [Compound 32]
4.90 to 6.00	–	–	–	Fc1cccc(-n2cnnc2-c2c[nH]c3ncccc23)c1F [Compound 107, 3-[4-(2,3-Difluoro-phenyl)-4H-[1,2,4]triazol-3-yl]-1H-pyrrolo[2,3-b]pyridine]
4.90 to 6.00	–	–	–	COC(=O)Cn1ccc2c(-c3oncc3-c3cccc(F)c3F)c[nH]c2c1=O [Compound 146, {3-[4-(2,3-Difluoro-phenyl)-isoxazol-5-yl]-7-oxo-1,7-di hydro-pyrrolo[2,3-c]pyridin-6-yl}-acetic acid methyl ester]
> 6.70	6.00 to 6.70	> 6.70	–	N#Cc1ccc(-c2cnc3[nH]cc(-c4oncc4-c4cccc(F)c4F)c3c2)cc1 [Compound 89, 4-{3-[4-(2,3-Difluoro-phenyl)-isoxazol-5-yl]-1H-pyrrolo [2,3-b]pyridin-5-yl}-benzonitrile]
4.90 to 6.00	–	–	–	Fc1cccc(-n2nnnc2-c2c[nH]c3ncccc23)c1F [Compound 11, 3-[1-(2,3-Difluoro-phenyl)-1H-tetrazol-5-yl]-1H-pyrrolo [2,3-b]pyridine]

Reference: patent US7446199B2, “Compositions useful as inhibitors of protein kinases” (Vertex Pharmaceuticals Incorporated, priority 2003, dated 2008)
